# Tests used:
# [1] = target: T1, Aβ 1-42 (Homo sapiens, UniProt P05067); test: Determination of Aβ aggregation inhibitory activity (thioflavin T fluorescence); assay type: biochemical; settings: Aβ 1-42, 37° C. for 24 hours, thioflavin T; read-out: IC50 (μM) Test example 3 (Aβ aggregation inhibitory activity)
# T1 construct: Aβ 1-42 (Peptide Institute, Inc.) was dissolved in 0.3% ammonia water; purchased Peptide Institute, Inc
# Method: Pharmacological test example 3: Determination of Aβ aggregation inhibitory activity
# Aβ 1-42 (Peptide Institute, Inc.) was dissolved in 0.3% ammonia water so that the concentration would be 0.5 mM and then diluted with PBS to 20 μM. The test compounds were prepared using DMSO at 100-fold of their final concentrations and adjusted so that the DMSO concentration would be 2%. The Aβ solution and each of the test compound solutions were mixed at an equivalent ratio and the mixtures were incubated at 37° C. for 24 hours. To each of the mixtures, an equal volume of a thioflavin T solution adjusted with a 100 mM Tris-glycine buffer (pH 8.5) to 6 μM was added. The fluorescence intensity was measured with a fluorescence plate reader (excitation wavelength: 440 nm; emission wavelength: 480 nm).
# (§1) The final concentration of each compound at the time of measurement was set at 0.1, 0.3, 1, 3, and 10 μM. The sample to which only DMSO was added was used as a negative control and its fluorescence intensity was taken as 0% inhibitory activity.
# [2] = target: T2, recombinant human β-secretase (Homo sapiens, UniProt P56817); test: Determination of β-secretase inhibitory activity (BACE-1 FRET assay Kit); assay type: biochemical; settings: for IC50: recombinant human β-secretase, fluorescent substrate peptide, 1 hour, read-out: IC50 (μM) Test example 2 (β-secretase inhibitory activity)
# T2 construct: purchased Invitrogen
# Method: Pharmacological Test Example 2: Determination of β-Secretase Inhibitory Activity
# The β-secretase inhibitory activity was measured with BACE-1 FRET assay Kit (Invitrogen). The test compounds were prepared using DMSO at 30-fold of their final concentrations and dissolved so that the DMSO concentration would be 10%. To each of the solutions, an equal volume of a recombinant human β-secretase (1 U/mL) dissolved in the assay buffer and an equal volume of fluorescent substrate peptide (2.5 nM) were added and the solutions were left to stand for 1 hour. The fluorescence intensity was measured with a fluorescence plate reader (excitation wavelength: 545 nm; emission wavelength: 590 nm).
# The final concentration of each compound at the time of measurement was set at 0.1, 0.3, 1, 3, and 10 μM, at 0.3, 1, 3, 10, and 30 μM, or at 1, 3, 10, 30, and 100 μM.
# [3] = target: recombinant three-repeat microtubule-binding domain (3R-MBD) of tau protein (Homo sapiens, UniProt P10636); test: Determination of tau aggregation inhibitory activity (heparin-induced, thioflavin T fluorescence; electron microscope); assay type: biochemical; settings: for IC50: 3R-MBD tau 10 μM, heparin 10 μM, 37° C. for 16 hours, thioflavin T, read-out: IC50 (μM) Test example 1 (tau aggregation inhibitory activity)
# Method: Pharmacological Test Example 1: Determination of Tau Aggregation Inhibitory Activity
# A recombinant three-repeat microtubule-binding domain (3R-MBD) of tau protein was expressed in E. coli and was purified and used for the experiment. The purified tau solution was diluted with a 50 mM Tris-HCl buffer (pH 7.6) to a final concentration of 10 μM. The test compounds were prepared using dimethylsulfoxide (DMSO) at 20-fold of their final concentrations and added to the plate so that the DMSO concentration would be 5%. Heparin was added to the plate so that the final concentration would be 10 μM and the plate was left to stand at 37° C. for 16 hours. Thioflavin T was added to the plate so that the concentration would be 10 μM and the fluorescence intensity was measured with a fluorescence plate reader (PerkinElmer, Inc.) (excitation wavelength: 440 nm; emission wavelength: 480 nm).
# as §1
# The samples were placed on a grid and washed with distilled water. A 1 mM phosphotungstic acid aqueous solution was added to the samples. The samples were washed, dried overnight, and observed.
# T2 sequence (P56817 46-501): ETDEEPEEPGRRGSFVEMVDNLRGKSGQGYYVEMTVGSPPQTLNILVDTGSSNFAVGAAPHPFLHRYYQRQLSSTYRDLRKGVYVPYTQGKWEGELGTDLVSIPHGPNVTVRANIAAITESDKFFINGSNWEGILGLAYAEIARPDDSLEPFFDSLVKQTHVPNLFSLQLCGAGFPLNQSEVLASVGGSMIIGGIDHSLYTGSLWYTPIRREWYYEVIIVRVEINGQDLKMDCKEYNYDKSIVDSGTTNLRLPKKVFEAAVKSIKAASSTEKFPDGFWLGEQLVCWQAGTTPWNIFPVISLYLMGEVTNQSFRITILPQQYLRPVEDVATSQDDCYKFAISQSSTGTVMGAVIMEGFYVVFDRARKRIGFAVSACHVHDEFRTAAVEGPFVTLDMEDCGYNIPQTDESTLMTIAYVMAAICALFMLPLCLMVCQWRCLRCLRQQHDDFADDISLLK
# T1 sequence (P05067 672-713): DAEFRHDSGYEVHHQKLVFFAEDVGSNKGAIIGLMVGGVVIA
# Chain of recombinant three-repeat microtubule-binding domain (3R-MBD) of tau protein (P10636 186-279 isoform P10636-2 limits assumed): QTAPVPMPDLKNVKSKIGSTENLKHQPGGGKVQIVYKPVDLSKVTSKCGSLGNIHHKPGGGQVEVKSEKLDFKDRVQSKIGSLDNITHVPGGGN
Compound,melting point,IC50 [1],IC50 [2],IC50 [3],inhibition at 1 µM ([2]; compound at 1 μM),tau aggregation inhibitory activity at 1 μM ([3]; compound at 1 μM)
"COc1cc(OCC2CCCO2)ccc1/C=C/c1cc(/C=C/c2ccc3cc[nH]c3c2)[nH]n1 (centres unmarked) [Example 1, 3-[(1E)-2-(1H-indol-6-yl)ethenyl]-5-[(1E)-2-[2-methoxy-4-(2-tetrahydrofuranylmethoxy)phenyl]ethenyl]-1H-pyrazole]",218 to 220 °C,3 µM,2.85 µM,1.49 µM,–,–
"Oc1cc(OCc2ccccn2)ccc1/C=C/c1cc(/C=C/c2ccc3cc[nH]c3c2)[nH]n1 [Example 3, 3-[(1E)-2-(1H-indol-6-yl)ethenyl]-5-[(1E)-2-[2-hydroxy-4-(2-pyridylmethoxy)phenyl]ethenyl]-1H-pyrazole]",202.5 to 203.5 °C,1.6 µM,2.9 µM,–,–,–
"COc1cc(OCCN2CCOCC2)ccc1/C=C/c1cc(/C=C/c2ccc3cc[nH]c3c2)[nH]n1 [Example 27, 3-[(1E)-2-(1H-indol-6-yl)ethenyl]-5-[(1E)-2-[2-methoxy-4-(2-morpholinoethoxy)phenyl]ethenyl]-1H-pyrazole]",113 to 122 °C,7.53 µM,1.04 µM,1.28 µM,–,–
"COc1cc(OCc2ccccn2)ccc1/C=C/c1cc(/C=C/c2ccc3[nH]cnc3c2)[nH]n1 [Example 31, 3-[(1E)-2-(1H-benzimidazol-5-yl)ethenyl]-5-[(1E)-2-[2-methoxy-4-(2-pyridylmethoxy)phenyl]ethenyl]-1H-pyrazole]",135 to 142 °C,6.88 µM,0.69 µM,1.57 µM,–,–
"COc1cc(OCc2ccccn2)ccc1/C=C/c1cc(/C=C/c2ccc3ccn(C)c3c2)[nH]n1 [Example 35, 3-[(1E)-2-[2-methoxy-4-(2-pyridylmethoxy)phenyl]ethenyl]-5-[(1E)-2-(1-methyl-1H-indol-6-yl)ethenyl]-1H-pyrazole]",172 to 174 °C,0.91 µM,–,–,–,–
"COc1cc(OCc2ccccn2)ccc1/C=C/c1cc(/C=C/c2cc3ccccc3[nH]2)[nH]n1 [Example 36, 3-[(1E)-2-(1H-indol-2-yl)ethenyl]-5-[(1E)-2-[2-methoxy-4-(2-pyridylmethoxy)phenyl]ethenyl]-1H-pyrazole]",150.8 to 151.6 °C,2.9 µM,–,–,–,–
"CCN(CC)c1ccc(/C=C/c2cc(/C=C/c3ccc4cc[nH]c4c3)[nH]n2)c(OCc2ccccc2)c1 [Example 37, 3-[(1E)-2-(2-benzyloxy-4-diethylaminophenyl)ethenyl]-5-[(1E)-2-(1H-indol-6-yl)ethenyl]-1H-pyrazole]",78.1 to 80 °C,0.4 µM,–,–,–,–
"COc1ccc([N+](=O)[O-])c(/C=C/c2cc(/C=C/c3ccc4cc[nH]c4c3)[nH]n2)c1 [Example 58, 3-[(1E)-2-(1H-indol-6-yl)ethenyl]-5-[(1E)-2-(5-methoxy-2-nitrophenyl)ethenyl]-1H-pyrazole]",104 to 109 °C,2.17 µM,1.11 µM,3.84 µM,–,–
"COc1cc(OCc2ccccc2)ccc1/C=C/c1cc(/C=C/c2ccc3cc[nH]c3c2)[nH]n1 [Example 63, 3-[(1E)-2-(4-benzyloxy-2-methoxyphenyl)ethenyl]-5-[(1E)-2-(1H-indol-6-yl)ethenyl]-1H-pyrazole]",86 to 91 °C,> 10 µM,4.39 µM,1.37 µM,–,–
"CN1CCCN(c2ccc(/C=C/c3cc(/C=C/c4ccc5cc[nH]c5c4)[nH]n3)c(Br)c2)CC1 [Example 72, 3-[(1E)-2-[2-bromo-4-(4-methyl-1,4-diazepan-1-yl)phenyl]ethenyl]-5-[(1E)-2-(1H-indol-6-yl)ethenyl]-1H-pyrazole]",132 to 136 °C,2.45 µM,0.22 µM,1.46 µM,–,–
"COc1cc(OCc2ccccn2)ccc1/C=C/c1cc(/C=C/c2ccc3c(c2)OCO3)[nH]n1 [Example 77, 3-[(1E)-2-(1,3-benzodioxol-5-yl)ethenyl]-5-[(1E)-2-[2-methoxy-4-(2-pyridylmethoxy)phenyl]ethenyl]-1H-pyrazole]",218 to 220 °C,> 10 µM,13.7 µM,1.26 µM,–,–
"COc1cc(OCc2nccs2)ccc1/C=C/c1cc(/C=C/c2ccc3cc[nH]c3c2)[nH]n1 [Example 82, 3-[(1E)-2-(1H-indol-6-yl)ethenyl]-5-[(1E)-2-[2-methoxy-4-(1,3-thiazol-2-ylmethoxy)phenyl]ethenyl]-1H-pyrazole]",229 to 237 °C,4.43 µM,3.99 µM,1.04 µM,–,–
"COc1cc(OCc2ccccn2)ccc1/C=C/c1cc(/C=C/c2ccc3c(c2)OCCO3)[nH]n1 [Example 83, 3-[(1E)-2-(1,4-benzodioxan-6-yl)ethenyl]-5-[(1E)-2-[2-methoxy-4-(2-pyridylmethoxy)phenyl]ethenyl]-1H-pyrazole]",153 to 155 °C,> 10 µM,22.7 µM,0.85 µM,–,–
"CCN(CC)c1ccc(/C=C/c2cc(/C=C/c3ccc4cc[nH]c4c3)[nH]n2)c(OCCN2CCOCC2)c1 [Example 98, 3-[(1E)-2-[4-diethylamino-2-(2-morpholinoethoxy)phenyl]ethenyl]-5-[(1E)-2-(1H-indol-6-yl)ethenyl]-1H-pyrazole]",96 to 99 °C,3.27 µM,1.25 µM,1.29 µM,–,–
"COc1cc(OCc2ccccn2)ccc1/C=C/c1cc(/C=C/c2c[nH]c3ccc(F)cc23)[nH]n1 [Example 99, 3-[(1E)-2-(5-fluoro-1H-indol-3-yl)ethenyl]-5-[(1E)-2-[2-methoxy-4-(2-pyridylmethoxy)phenyl]ethenyl]-1H-pyrazole]",209 to 213 °C,–,–,–,–,–
"COc1ccc2[nH]cc(/C=C/c3cc(/C=C/c4ccc(OCc5ccccn5)cc4OC)n[nH]3)c2c1 [Example 100, 3-[(1E)-2-(5-methoxy-1H-indol-3-yl)ethenyl]-5-[(1E)-2-[2-methoxy-4-(2-pyridylmethoxy)phenyl]ethenyl]-1H-pyrazole]",189 to 195 °C,–,–,–,–,–
"C(=C\c1cc(/C=C/c2ccc3cc[nH]c3c2)[nH]n1)/c1ccc(N2CCOCC2)cc1 [Example 103, 5-[(1E)-2-(1H-indol-6-yl)ethenyl]-3-[(1E)-2-(4-morpholinophenyl)ethenyl]-1H-pyrazole]",236 to 238 °C,–,–,–,–,–
"CCN(CC)c1ccc(/C=C/c2cc(/C=C/c3ccc4cc[nH]c4c3)[nH]n2)c(OC)c1 [Example 104, 3-[(1E)-2-(4-diethylamino-2-methoxyphenyl)ethenyl]-5-[(1E)-2-(1H-indol-6-yl)ethenyl]-1H-pyrazole]",104 to 108 °C,–,–,–,–,–
"CN(C)c1ccc(/C=C/c2cc(/C=C/c3ccc4cc[nH]c4c3)[nH]n2)cc1 [Example 105, 3-[(1E)-2-(4-dimethylaminophenyl)ethenyl]-5-[(1E)-2-(1H-indol-6-yl)ethenyl]-1H-pyrazole]",224 to 227 °C,–,–,–,–,–
"CCN(CC)c1ccc(/C=C/c2cc(/C=C/c3ccc4cc[nH]c4c3)[nH]n2)cc1 [Example 106, 3-[(1E)-2-(4-diethylaminophenyl)ethenyl]-5-[(1E)-2-(1H-indol-6-yl)ethenyl]-1H-pyrazole]",201 to 204 °C,–,–,–,–,–
"C(=C\c1cc(/C=C/c2ccc3cc[nH]c3c2)[nH]n1)/c1ccc(N2CCCCC2)cc1 [Example 107, 5-[(1E)-2-(1H-indol-6-yl)ethenyl]-3-[(1E)-2-[4-(1-piperidinyl)phenyl]ethenyl]-1H-pyrazole]",189 to 191 °C,–,–,–,–,–
"COc1cc(OCc2ccccn2)ccc1/C=C/c1cc(/C=C/c2ccccc2)[nH]n1 [Example 109, 3-[(1E)-2-[2-methoxy-4-(2-pyridylmethoxy)phenyl]ethenyl]-5-[(1E)-2-phenylethenyl]-1H-pyrazole]",143 to 146 °C,–,–,–,12%,0%
